Source: article PMC7702721 (The AAPS journal, 2016)
Where two headings read alike, the source gives them in different places.

How the values were obtained:
[1] = Pharmacokinetic study in rats after oral administration of kaempferol; format: in vivo, Sprague–Dawley (SD) rats; settings: for AUC0-t / Cmax / MRT0-t / Tmax / AUC0−∞ / MRT last: plasma; for AUC0−∞: predicted AUC
[2] = format: in vivo, FVB mice; settings: oral kaempferol 10 mg/kg; for fold higher plasma Cmax and AUC0-t in absence of Bcrp versus wild-type: Bcrp1^−/− vs wild-type FVB mice
[3] = system: Caco-2 monolayer; experiment: Bidirectional efflux of kaempferol-glucuronides across the Caco-2 monolayer; format: in vitro ADME; settings: 10 μM kaempferol loaded AP or BL, 2 h
[4] = rat, in vivo
[5] = In situ four-site rat intestinal perfusion of kaempferol
[6] = system: rat hepatic and segmental intestinal preparations; experiment: Kaempferol glucuronidation via rat hepatic and segmental intestinal microsomes; format: in vitro ADME, SD rats
[7] = system: hepatic and intestinal S9 fractions; format: in vitro ADME, FVB mice; settings: kaempferol 1.25 μM
[8] = system: hepatic and intestinal S9 fractions; format: in vitro ADME, FVB mice; settings: kaempferol 0.125 μM
[9] = system: rat hepatic and segmental intestinal preparations; experiment: Kaempferol sulfation via rat hepatic and segmental intestinal S9 fraction; format: in vitro ADME, SD rats; settings: kaempferol 0.125, 0.5 and 1.25 μM, S9 fraction 0.02 mg/mL
[10] = ref [20]; cited from earlier work
[11] = system: Caco-2 monolayer; experiment: Transporter inhibition experiments in the Caco-2 monolayer; settings: kaempferol 10 μM
[12] = male SD rats, oral kaempferol 10 mg/kg, n = 6
[13] = male SD rats, oral kaempferol 20 mg/kg, n = 6
[14] = perfusion with 5 μM or 20 μM kaempferol
[15] = male, Sprague-Dawley, rat, po, 10 mg/kg
[16] = male, Sprague-Dawley, rat, po, 20 mg/kg

O=C(O)[C@H]1O[C@@H](Oc2c(-c3ccc(O)cc3)oc3cc(O)cc(O)c3c2=O)[C@H](O)[C@@H](O)[C@@H]1O [K-3-G, kaempferol-3-glucuronide]
AUC0-t [1, 12]: (1.74 ± 0.47) ×10^3 min•μmol/L
Cmax [1, 12]: 24.6 ± 7 µM
MRT0-t [1, 12]: 1.48 ± 0.233 h
Tmax [1, 12]: 0.333 ± 0.148 h
AUC0-t [1, 13]: (2.79 ± 0.33) ×10^3 min•μmol/L
Cmax [1, 13]: 30.9 ± 5.5 µM
MRT0-t [1, 13]: 1.9 ± 0.467 h
Tmax [1, 13]: 0.4 ± 0.0917 h
AUC0−∞ [1, 12]: (1.76 ± 0.46) ×10^3 min•μmol/L
AUC0−∞ [1, 13]: (2.81 ± 0.33) ×10^3 min•μmol/L
AUC of K-3-G, times higher than that of K-7-G ([1]; rats, 10 mg/kg kaempferol): five
AUC of K-3-G, times higher than that of K-7-S ([1]; rats, 10 mg/kg kaempferol): four
Cmax and AUC of K-3-G relative to K-7-G ([1]; rats, oral kaempferol): threefold to fivefold higher
AUC0-t ([2]; Bcrp1^−/− FVB mice): 848 ± 123 µmol·min/L
Cmax ([2]; Bcrp1^−/− FVB mice): 18 ± 6.4 µM
MRT ([2]; Bcrp1^−/− FVB mice): 1.62 ± 0.362 h
fold higher plasma Cmax and AUC0-t in absence of Bcrp versus wild-type [2]: ~ 2 fold
AUC0-t ([2]; Mdr1a^−/− FVB mice): 143 ± 83 µmol·min/L
Cmax ([2]; Mdr1a^−/− FVB mice): 4.62 ± 1.14 µM
MRT ([2]; Mdr1a^−/− FVB mice): 1.88 ± 1.18 h
AUC0-t ([2]; Mrp1^−/− FVB mice): 38.0 ± 29.1 µmol·min/L
Cmax ([2]; Mrp1^−/− FVB mice): 1.75 ± 1.18 µM
MRT ([2]; Mrp1^−/− FVB mice): 0.557 ± 0.332 h
AUC0-t ([2]; Mrp2^−/− FVB mice): (1.28 ± 0.27) ×10^3 min•μmol/L
Cmax ([2]; Mrp2^−/− FVB mice): 32.3 ± 9.7 µM
MRT ([2]; Mrp2^−/− FVB mice): 1.51 ± 0.183 h
AUC0-t ([2]; wild-type FVB mice): 365 ± 195 µmol·min/L
Cmax ([2]; wild-type FVB mice): 8.92 ± 1.69 µM
MRT ([2]; wild-type FVB mice): 1.72 ± 0.483 h
efflux toward the BL side compared with that toward the AP side [3]: approximately six times higher
detection in plasma during perfusion [4]: detected in plasma
regional excretion of metabolite in the perfusate [5, 14]: highest excretion in duodenum and jejunum and the lowest excretion in colon

O=C(O)[C@H]1O[C@@H](Oc2cc(O)c3c(=O)c(O)c(-c4ccc(O)cc4)oc3c2)[C@H](O)[C@@H](O)[C@@H]1O [K-7-G, kaempferol-7-glucuronide]
AUC0-t [1, 12]: 310 ± 95 µmol·min/L
Cmax [1, 12]: 5.29 ± 2.97 µM
MRT0-t [1, 12]: 2.1 ± 0.617 h
Tmax [1, 12]: 0.292 ± 0.0833 h
AUC0-t [1, 13]: 802 ± 231 µmol·min/L
Cmax [1, 13]: 9.55 ± 3.37 µM
MRT0-t [1, 13]: 2.17 ± 0.717 h
Tmax [1, 13]: 0.267 ± 0.0917 h
AUC0−∞ [1, 12]: 314 ± 96 µmol·min/L
AUC0−∞ [1, 13]: 811 ± 311 µmol·min/L
AUC0-t ([2]; Bcrp1^−/− FVB mice): 464 ± 234 µmol·min/L
Cmax ([2]; Bcrp1^−/− FVB mice): 14.9 ± 3.6 µM
MRT ([2]; Bcrp1^−/− FVB mice): 0.757 ± 0.372 h
fold higher plasma Cmax and AUC0-t in absence of Bcrp versus wild-type [2]: > 4 fold
AUC0-t ([2]; Mdr1a^−/− FVB mice): 63.1 ± 15.3 µmol·min/L
Cmax ([2]; Mdr1a^−/− FVB mice): 1.12 ± 0.68 µM
MRT ([2]; Mdr1a^−/− FVB mice): 4.07 ± 0.367 h
AUC0-t ([2]; Mrp1^−/− FVB mice): 13.9 ± 12.0 µmol·min/L
Cmax ([2]; Mrp1^−/− FVB mice): 0.839 ± 0.853 µM
MRT ([2]; Mrp1^−/− FVB mice): 0.43 ± 0.277 h
AUC0-t ([2]; Mrp2^−/− FVB mice): 392 ± 78 µmol·min/L
Cmax ([2]; Mrp2^−/− FVB mice): 14.3 ± 4.8 µM
MRT ([2]; Mrp2^−/− FVB mice): 1.52 ± 0.302 h
AUC0-t ([2]; wild-type FVB mice): 114 ± 79 µmol·min/L
Cmax ([2]; wild-type FVB mice): 2.91 ± 1.94 µM
MRT ([2]; wild-type FVB mice): 1.36 ± 0.57 h
glucuronide formation by liver microsomes, K-7-G versus K-3-G ([6]; rat liver microsomes): more K-7-G than K-3-G
efflux toward the BL side compared with that toward the AP side [3]: not more than twice higher
amount of K-7-G in the perfusate compared with K-3-G ([5]; 20 μM perfusion): slightly higher than that of K-3-G in duodenum and jejunum, but was significantly higher in ileum and colon
regional excretion of metabolite in the perfusate [5, 14]: highest excretion in duodenum and jejunum and the lowest excretion in colon

O=c1c(O)c(-c2ccc(O)cc2)oc2cc(OS(=O)(=O)O)cc(O)c12 [K-7-S, kaempferol-7-sulfate]
Cmax [1, 15]: 0.332 ± 0.085 µM
MRT last [1, 15]: 17.5 h
Tmax [1, 15]: 18.7 h
Cmax [1, 16]: 0.703 ± 0.296 µM
MRT last [1, 16]: 18.2 h
Tmax [1, 16]: 15.2 h
AUC0-t [1, 12]: 454 ± 90 µmol·min/L
AUC0-t [1, 13]: (1.15 ± 0.22) ×10^3 min•μmol/L
AUC0−∞ [1, 12]: 536 ± 164 µmol·min/L
AUC0−∞ [1, 13]: (1.65 ± 0.56) ×10^3 min•μmol/L
time after dose at which still detected in plasma ([1]; rats, oral kaempferol): 36 h
AUC0-t ([2]; Bcrp1^−/− FVB mice): 156 ± 55 µmol·min/L
AUC0-t ([2]; Mdr1a^−/− FVB mice): 36.7 ± 37.0 µmol·min/L
AUC0-t ([2]; Mrp1^−/− FVB mice): 6.72 ± 5.83 µmol·min/L
AUC0-t ([2]; Mrp2^−/− FVB mice): 102 ± 10 µmol·min/L
Cmax ([2]; male, FVB, mouse, plasma, po, 10 mg/kg, Cmax, wild-type FVB mice): 0.301 ± 0.185 µM
MRT ([2]; male, FVB, mouse, plasma, po, 10 mg/kg, MRT, wild-type FVB mice): 2.75 h
AUC0-t ([2]; wild-type FVB mice): 49.5 ± 38.6 µmol·min/L
regional excretion of metabolite in the perfusate [5, 14]: highest excretion in colon and lowest excretion in ileum

O=c1c(O)c(-c2ccc(O)cc2)oc2cc(O)cc(O)c12 [Kaempferol, 3,4′,5,7-trihydroxyflavone]
Cmax [1, 15]: 0.305 ± 0.106 µM
MRT last [1, 15]: 0.437 h
Tmax [1, 15]: 0.445 h
Cmax [1, 16]: 0.647 ± 0.244 µM
MRT last [1, 16]: 2.47 h
Tmax [1, 16]: 0.3 h
AUC0-t [1, 12]: 10.3 ± 3.8 µmol·min/L
AUC0-t [1, 13]: 51.8 ± 17.2 µmol·min/L
AUC0−∞ [1, 12]: 11.4 ± 3.7 µmol·min/L
AUC0−∞ [1, 13]: 57.9 ± 13.6 µmol·min/L
Cmax of kaempferol, times lower than that of K-3-G ([1]; rats, oral kaempferol): approximately 50 times
Cmax of kaempferol, times lower than that of K-7-G ([1]; rats, oral kaempferol): ~16 times
time to reach Cmax ([1]; rats, oral kaempferol): ≤ 30 min
free kaempferol plasma concentration (below LLOQ) ([2]; at most periods, all strains of mice): < 3.9 nM
increase of glucuronidation rate versus wild-type ([7]; liver S9, Bcrp1^−/− mice): 32%
decrease of hepatic glucuronidation rate versus wild-type ([7]; liver S9, Mdr1a^−/− mice): ~30%
decrease of hepatic glucuronidation rate versus wild-type ([7]; liver S9, Mrp1^−/− mice): ~ 26%
decrease of hepatic glucuronidation rate versus wild-type ([7]; liver S9, Mrp2^−/− mice): ~ 11%
decrease of sulfation rate versus wild-type ([8]; intestine S9, Mdr1a^−/− mice): ~47%
decrease of sulfation rate versus wild-type ([8]; intestine S9, Mrp1^−/− mice): ~ 25%
decrease of sulfation rate versus wild-type ([8]; intestine S9, Mrp2^−/− mice): ~79%
decrease of sulfation rate versus wild-type ([8]; liver S9, Mdr1a^−/− mice): ~39%
decrease of sulfation rate versus wild-type ([8]; liver S9, Mrp1^−/− mice): ~ 11%
decrease of sulfation rate versus wild-type ([8]; liver S9, Mrp2^−/− mice): ~59%
glucuronidation rates by segment ([6]; kaempferol 1.25, 2.5 and 10 μM, microsomes 0.00318 mg/mL): high and low glucuronidation rates were observed in the small intestine and colon, respectively
sulfation reaction rates by tissue [9]: highest reaction rates in liver
bioavailability [10]: lower than 2%
regional absorption of kaempferol [5, 14]: faster absorption in colon than in jejunum and ileum

COc1ccc2c3c([nH]c2c1)[C@H](CC(C)C)N1C(=O)[C@H](CCC(=O)OC(C)(C)C)NC(=O)[C@@H]1C3 [Ko143]
effect on bidirectional efflux rates and Fmet of the two glucuronides ([11]; Ko143 10 μM): significantly decreased
effect on efflux rates and Fmet of K-7-S ([11]; Ko143 10 μM): No statistical differences

CCCCC/C=C\C\C=C/C=C/C=C/[C@@H](SC[C@H](NC(=O)CC[C@H](N)C(=O)O)C(=O)NCC(=O)O)[C@@H](O)CCCC(=O)O [LTC4]
effect on Fmet (BL to AP) of the three metabolites ([11]; LTC4 0.1 μM): decreased
effect on intracellular amounts of K-3-G and K-7-G (AP to BL) ([11]; LTC4 0.1 μM): significantly increased
effect on amounts of the three metabolites in the AP side ([11]; LTC4 0.1 μM, except K-7-S (AP to BL)): reduced

CN(C)C(=O)CCSC(SCCC(=O)O)c1cccc(/C=C/c2ccc3ccc(Cl)cc3n2)c1 (stereo not drawn) [MK571]
effect on intracellular amounts of the three metabolites ([11]; MK571 10 μM): did not significantly influence
effect on the three metabolites transported into BL side ([11]; MK571 10 μM): dramatically reduced
effect on efflux rates of the three metabolites toward the BL side ([11]; MK571 10 μM, except K-7-G (AP to BL)): significantly lowered
